Test results as given in patent publication US20060002870A1 (priority 2004, published 2006).

Test system: skin
Experiment: Clinical study of intensity and tonality of self-tanning with merospheres, empty liposomes and ursolic acid (Chromameter, forearms)
Format: in vivo, human
Details: added to 3% DHA, 5% pentylene glycol; 5 hours and 24 hours; FIG. 7
Procedure: This clinical study is designed to investigate the intensity and tonality of self-tanning with a formulation containing different combination of merospheres, empty liposomes and ursolic acid. The following materials are tested: A total of […] panelists participate in the study. The panel is divided in seven groups of 7-8 corresponding to the seven test materials. The panelists apply the “control” formulation containing 3% DHA-PG on the right arm and the assigned test material on the other arm. For each panelist exact amounts (800 μl each) of the test materials are dispensed on the forearms and blended in by the panelists. Color measurements are obtained with the Chromameter before treatment and 5 hours and 24 hours. Decrease in reflectance and increase in red coloration and yellow coloration (ΔL*, Δa* and Δb* values) obtained from the Chromameter are calculated as compared to baseline skin color. Total color change ΔE* is calculated for each time point as follows: ΔE*={overscore (V(ΔL*)^2+(Δa*)^2+(Δb)}*)^2 For assessing the tonality, Chroma (ΔC*) is calculated and plotted against reflectance (ΔL* values) within the “Natural Universe of Tan”. This Natural Universe is the range of color of tan obtained by multiple or single exposures to the sun.

Compound: C[C@H]1[C@H](C)CC[C@]2(C(=O)O)CC[C@]3(C)C(=CC[C@@H]4[C@@]5(C)CC[C@H](O)C(C)(C)[C@@H]5CC[C@]43C)[C@H]12 [ursolic acid]
- Self-tanning effect (ΔE*): neither addition of empty liposomes nor ursolic acid alone changes the self-tanning effect
